Measured values published in article PMC11357161, “Phytochemical Analysis, Biological Activities, and Docking of Phenolics from Shoot Cultures of Hypericum perforatum L. Transformed by Agrobacterium rhizogenes” (Molecules, 2024).
pIC50: −log10 of the molar value. Marks after values point to notes of the source that are not given here.

Experiments:
Assay type in all cases: biochemical
α-amylase (α-AM) = α-amylase (α-AM) (Aspergillus oryzae, UniProt P0C1B3); test: α-AM inhibitory activity in vitro; conditions: concentration that inhibits 25% of enzyme activity; mean ± SD, three replicates
Description: (§1) Shoot methanolic extracts were evaporated in a freeze-dryer (Labconco, Kansas City, MO, USA), and dry extracts were dissolved in 50% dimethyl sulfoxide. […] The protocols for MAO-A, AChE, BChE, TYR, α-AM, α-GL, PL, and CHE inhibitory activities were presented in our previous studies. […] Three replicates were used for all enzyme-inhibitory tests.

[1] = target: T1, monoamine oxidase-A (MAO-A) (Homo sapiens, UniProt P21397); test: MAO-A inhibitory activity in vitro
T1 sequence (P21397 1-527): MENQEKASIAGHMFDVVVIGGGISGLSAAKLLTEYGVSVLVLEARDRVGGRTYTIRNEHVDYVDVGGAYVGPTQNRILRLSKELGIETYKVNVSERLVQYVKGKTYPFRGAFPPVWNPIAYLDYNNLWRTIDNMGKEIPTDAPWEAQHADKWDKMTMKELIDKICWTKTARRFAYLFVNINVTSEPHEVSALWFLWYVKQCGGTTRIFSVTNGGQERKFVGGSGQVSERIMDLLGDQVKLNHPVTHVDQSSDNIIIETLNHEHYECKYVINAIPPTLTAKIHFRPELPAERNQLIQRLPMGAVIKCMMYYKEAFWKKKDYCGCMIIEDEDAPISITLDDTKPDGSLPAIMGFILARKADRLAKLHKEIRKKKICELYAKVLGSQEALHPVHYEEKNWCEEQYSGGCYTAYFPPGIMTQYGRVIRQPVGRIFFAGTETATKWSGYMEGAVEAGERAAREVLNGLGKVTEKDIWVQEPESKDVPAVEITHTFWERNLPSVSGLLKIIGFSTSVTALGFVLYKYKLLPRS
Description: as §1

[2] = target: T2, cholesterol esterase (CHE) (Homo sapiens, UniProt P19835); test: CHE inhibitory activity in vitro; conditions: concentration that inhibits 50% of enzyme activity; mean ± SD, three replicates
T2 sequence (P19835 21-753): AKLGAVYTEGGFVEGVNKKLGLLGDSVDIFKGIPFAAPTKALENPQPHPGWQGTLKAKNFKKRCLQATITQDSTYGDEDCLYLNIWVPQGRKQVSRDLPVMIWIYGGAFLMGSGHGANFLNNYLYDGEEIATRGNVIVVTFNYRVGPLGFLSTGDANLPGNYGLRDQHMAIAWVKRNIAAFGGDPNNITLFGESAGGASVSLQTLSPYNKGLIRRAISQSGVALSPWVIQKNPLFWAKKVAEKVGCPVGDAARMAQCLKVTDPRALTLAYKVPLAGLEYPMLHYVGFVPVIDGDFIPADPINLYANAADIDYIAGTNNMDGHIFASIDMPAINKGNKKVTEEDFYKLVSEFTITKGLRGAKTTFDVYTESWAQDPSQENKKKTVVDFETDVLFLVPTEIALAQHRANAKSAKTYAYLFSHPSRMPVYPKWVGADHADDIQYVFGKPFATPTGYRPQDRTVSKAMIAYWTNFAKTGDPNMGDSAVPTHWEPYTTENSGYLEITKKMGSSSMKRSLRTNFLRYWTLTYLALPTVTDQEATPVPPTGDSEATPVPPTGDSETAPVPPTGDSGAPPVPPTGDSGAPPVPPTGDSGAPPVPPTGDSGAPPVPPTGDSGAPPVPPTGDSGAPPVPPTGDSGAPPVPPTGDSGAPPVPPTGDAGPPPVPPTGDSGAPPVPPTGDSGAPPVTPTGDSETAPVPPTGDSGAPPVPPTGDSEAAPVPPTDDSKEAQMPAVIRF
Description: as §1

With `C[C@H]1O[C@H](O[C@H]2[C@H](O)[C@@H](O)[C@@H](O[C@H]3[C@H](O)[C@@H](O)C(O)O[C@@H]3CO)O[C@@H]2CO)[C@H](O)[C@@H](O)[C@@H]1N[C@H]1C=C(CO)[C@@H](O)[C@H](O)[C@H]1O` (stereo partly drawn) [Acarbose] the “α-AM (IC25)” value (α-amylase (α-AM)) was 6.77 ± 0.76 ^a µg·mL^−1.

`Oc1ccc(Cl)cc1Cl` [DCP, 2,4-dichlorophenol] gave a pIC50 [1] of 3.65.

`CCC(C)(C)C(=O)O[C@H]1C[C@@H](C)C=C2C=C[C@H](C)[C@H](CC[C@@H]3C[C@@H](O)CC(=O)O3)[C@H]21` [Simvastatin] gave a pIC50 [2] of 3.42.
